The source made the active and inactive calls. The calls are words filed in the database; no cut-off is given here.
Key:
[1] = system: PC-3; assay: Induction of apoptosis in PC3 measured as percentage of necrotic cells by biparametric PI/Annexin V assay at 5.1 uM after 48 hrs; type: functional, Homo sapiens
[2] = system: PC-3; assay: Induction of apoptosis in PC3 measured as percentage of early apoptotic cells by biparametric PI/Annexin V assay at 5.1 uM after 48 hrs; type: functional, Homo sapiens
[3] = system: PC-3; assay: Induction of apoptosis in PC3 cells measured as percentage of living cells by biparametric PI/Annexin V assay at 5.1 uM after 4 hrs; type: functional, Homo sapiens
[4] = system: PC-3; assay: Induction of apoptosis in PC3 cells measured as percentage of living cells by biparametric PI/Annexin V assay at 5.1 uM after 8 hrs; type: functional, Homo sapiens
[5] = system: PC-3; assay: Cytotoxicity against PC3 cells by SRB assay after 48 hrs; type: functional; conditions: Homo sapiens, PC-3, 48 h
[6] = system: PC-3; assay: Induction of apoptosis in PC3 measured as percentage of late apoptotic cells by biparametric PI/Annexin V assay at 5.1 uM after 48 hrs; type: functional, Homo sapiens
[7] = system: PC-3; assay: Induction of apoptosis in PC3 cells measured as percentage of living cells by biparametric PI/Annexin V assay at 5.1 uM after 48 hrs; type: functional, Homo sapiens
[8] = system: PC-3; assay: Induction of apoptosis in PC3 measured as percentage of early apoptotic cells by biparametric PI/Annexin V assay at 5.1 uM after 4 hrs; type: functional, Homo sapiens
[9] = system: PC-3; assay: Induction of apoptosis in PC3 measured as percentage of necrotic cells by biparametric PI/Annexin V assay at 5.1 uM after 24 hrs; type: functional, Homo sapiens
[10] = system: PC-3; assay: Induction of apoptosis in PC3 measured as percentage of late apoptotic cells by biparametric PI/Annexin V assay at 5.1 uM after 4 hrs; type: functional, Homo sapiens
[11] = system: PC-3; assay: Induction of apoptosis in PC3 cells by DNA fragmentation assay; type: functional, cell-based; conditions: Homo sapiens
[12] = system: PC-3; assay: Induction of apoptosis in PC3 measured as percentage of early apoptotic cells by biparametric PI/Annexin V assay at 5.1 uM after 24 hrs; type: functional, Homo sapiens
[13] = system: PC-3; assay: Induction of apoptosis in PC3 cells measured as percentage of living cells by biparametric PI/Annexin V assay at 5.1 uM after 24 hrs; type: functional, Homo sapiens
[14] = system: PC-3; assay: Induction of apoptosis in PC3 measured as percentage of necrotic cells by biparametric PI/Annexin V assay at 5.1 uM after 4 hrs; type: functional, Homo sapiens
[15] = system: PC-3; assay: Reduction in PC3 cell viability after 48 hrs by FDA flow cytometer assay; type: functional, cell-based; conditions: Homo sapiens
[16] = Ratio of K(app) for [A-T] to [G-C]
[17] = system: PC-3; assay: Induction of apoptosis in PC3 measured as percentage of late apoptotic cells by biparametric PI/Annexin V assay at 5.1 uM after 24 hrs; type: functional, Homo sapiens
[18] = system: PC-3; assay: Induction of apoptosis in PC3 measured as percentage of late apoptotic cells by biparametric PI/Annexin V assay at 5.1 uM after 8 hrs; type: functional, Homo sapiens
[19] = system: PC-3; assay: Induction of apoptosis in PC3 measured as percentage of necrotic cells by biparametric PI/Annexin V assay at 5.1 uM after 8 hrs; type: functional, Homo sapiens
[20] = system: PC-3; assay: Induction of apoptosis in PC3 measured as percentage of early apoptotic cells by biparametric PI/Annexin V assay at 5.1 uM after 8 hrs; type: functional, Homo sapiens
[21] = system: PC-3; assay: Induction of apoptosis in PC3 cells measured as percentage of living cells by biparametric PI/Annexin V assay at 3.6 uM after 8 hrs; type: functional, Homo sapiens
[22] = system: PC-3; assay: Induction of apoptosis in PC3 measured as percentage of late apoptotic cells by biparametric PI/Annexin V assay at 3.6 uM after 4 hrs; type: functional, Homo sapiens
[23] = system: PC-3; assay: Induction of apoptosis in PC3 measured as percentage of necrotic cells by biparametric PI/Annexin V assay at 3.6 uM after 4 hrs; type: functional, Homo sapiens
[24] = system: PC-3; assay: Induction of apoptosis in PC3 measured as percentage of late apoptotic cells by biparametric PI/Annexin V assay at 3.6 uM after 48 hrs; type: functional, Homo sapiens
[25] = system: PC-3; assay: Induction of apoptosis in PC3 measured as percentage of necrotic cells by biparametric PI/Annexin V assay at 3.6 uM after 48 hrs; type: functional, Homo sapiens
[26] = system: PC-3; assay: Induction of apoptosis in PC3 measured as percentage of necrotic cells by biparametric PI/Annexin V assay at 3.6 uM after 8 hrs; type: functional, Homo sapiens
[27] = system: PC-3; assay: Induction of apoptosis in PC3 measured as percentage of early apoptotic cells by biparametric PI/Annexin V assay at 3.6 uM after 8 hrs; type: functional, Homo sapiens
[28] = system: PC-3; assay: Induction of apoptosis in PC3 cells measured as percentage of living cells by biparametric PI/Annexin V assay at 3.6 uM after 24 hrs; type: functional, Homo sapiens
[29] = system: PC-3; assay: Induction of apoptosis in PC3 measured as percentage of late apoptotic cells by biparametric PI/Annexin V assay at 3.6 uM after 24 hrs; type: functional, Homo sapiens
[30] = system: PC-3; assay: Induction of apoptosis in PC3 measured as percentage of early apoptotic cells by biparametric PI/Annexin V assay at 3.6 uM after 24 hrs; type: functional, Homo sapiens
[31] = system: PC-3; assay: Induction of apoptosis in PC3 measured as percentage of early apoptotic cells by biparametric PI/Annexin V assay at 3.6 uM after 4 hrs; type: functional, Homo sapiens
[32] = system: PC-3; assay: Induction of apoptosis in PC3 measured as percentage of early apoptotic cells by biparametric PI/Annexin V assay at 3.6 uM after 48 hrs; type: functional, Homo sapiens
[33] = system: PC-3; assay: Induction of necrosis in PC3 cells by DNA fragmentation assay; type: functional, cell-based; conditions: Homo sapiens
[34] = system: PC-3; assay: Induction of apoptosis in PC3 cells measured as percentage of living cells by biparametric PI/Annexin V assay at 3.6 uM after 48 hrs; type: functional, Homo sapiens
[35] = system: PC-3; assay: Induction of apoptosis in PC3 measured as percentage of necrotic cells by biparametric PI/Annexin V assay at 3.6 uM after 24 hrs; type: functional, Homo sapiens
[36] = system: PC-3; assay: Induction of apoptosis in PC3 cells measured as percentage of living cells by biparametric PI/Annexin V assay at 3.6 uM after 4 hrs; type: functional, Homo sapiens
[37] = system: PC-3; assay: Induction of apoptosis in PC3 measured as percentage of late apoptotic cells by biparametric PI/Annexin V assay at 3.6 uM after 8 hrs; type: functional, Homo sapiens

Question: What does the source list for `Cc1ccc2c(c1)c(=O)c1c(NCCCN(C)CCCN3C(=O)c4cccc5cccc(c45)C3=O)ccc3nnn2c31.Cl`?
Answer: Activity [1]: 27.3%; Activity [2]: 57%; Activity [3]: 69.4%; Activity [4]: 54.8%; GI50 [5]: 0.017 µM; LC50 (concentration for 50% net cell kill) [5]: 5.1 µM; TGI [5]: 1.6 µM; Activity [6]: 15.7%; Activity [7]: 1%; Activity [8]: 0.9%; Activity [9]: 33%; Activity [10]: 1.1%; Activity [11]: Active; Activity [12]: 39%; Activity [13]: 11.9%; Activity [14]: 28.6%; Activity [15]: Time-dependent effect; Selectivity ratio [16]: 1.7; Activity [17]: 16.1%; Activity [18]: 1.9%; Activity [19]: 42%; Activity [20]: 1.3%

Question: For `COc1ccc2nc3c(C(=O)NCCN(C)C)ccc(NCCCN(C)CCCN4C(=O)c5cccc6cccc(c56)C4=O)c3c(O)c2c1.Cl`, which Activity [21] is on record?
Answer: 62.7%

Question: And the Activity [22]?
Answer: 1.2%

Question: And the Activity [23]?
Answer: 16.4%

Question: And the GI50 [5]?
Answer: 0.00016 µM

Question: And the LC50 (concentration for 50% net cell kill) [5]?
Answer: 3.6 µM

Question: And the TGI [5]?
Answer: 0.014 µM

Question: And the Activity [24]?
Answer: 14.3%

Question: And the Activity [25]?
Answer: 24.4%

Question: And the Activity [26]?
Answer: 32.9%

Question: And the Activity [27]?
Answer: 1.5%

Question: And the Activity [28]?
Answer: 35.5%

Question: What about the Activity [29] of the same compound?
Answer: 16.3%

Question: What about the Activity [11] of the same compound?
Answer: Active

Question: And the Activity [30]?
Answer: 25.9%

Question: What about the Activity [31] of the same compound?
Answer: 1.3%

Question: What about the Activity [32] of the same compound?
Answer: 59%

Question: What about the Activity [15] of the same compound?
Answer: Time-dependent effect

Question: And the Activity [33]?
Answer: Active

Question: What about the Activity [34] of the same compound?
Answer: 2.3%

Question: What about the Selectivity ratio [16] of the same compound?
Answer: 30

Question: And the Activity [35]?
Answer: 22.3%

Question: What about the Activity [36] of the same compound?
Answer: 81.1%

Question: What about the Activity [37] of the same compound?
Answer: 2.9%

— ChEMBL document CHEMBL1138883, “Synthesis and biological evaluation of new asymmetrical bisintercalators as potential antitumor drugs” (2006)
